pIC50: −log10 of the molar value. Values joined by “and” are separate entries in the source; they are usually repeats but may differ in a detail not shown here. Equal entries are not always repeated. Where two headings read alike, the source gives them in different places.
Columns and labels:
[1] = tested on: five human AML cell lines (MV-4-11, Kasumi-1, HL-60, MOLM-13, NB-4); test: Cell viability assay, summary over five human AML cell lines; settings: 72 hours
Procedure: (§5) MV-4-11, Kasumi-1, and HL-60 AML cell lines were all obtained from ATCC. MOLM-13 and NB-4 cell lines were obtained from DSMZ. […] The identity of each cell line was validated and documented by the suppliers. All experiments were performed with cells maintained at low passage numbers.
(§6) Compounds and/or solvent dimethyl sulfoxide (DMSO) were added at the same time using an HP D300 digital dispenser (Hewlett Packard) in triplicate or quadruplicate and incubated for 72 hours at 37°C. Viability was measured by adding 25 μL CellTiter-Glo (Promega), incubating for 10 minutes, and measuring luminescence on a SpectraMax (Molecular Devices). […] CI < 1 indicates synergism, CI = 1 indicates additivity, and CI > 1 indicates antagonism.

NB-4 cells = test: Cell viability assay (CellTiter-Glo); settings: read-out: IC50 cell viability NB-4; 72 hours
Procedure: as §5
Compounds and/or solvent dimethyl sulfoxide (DMSO) were added at the same time using an HP D300 digital dispenser (Hewlett Packard) in triplicate or quadruplicate and incubated for 72 hours at 37°C. Viability was measured by adding 25 μL CellTiter-Glo (Promega), incubating for 10 minutes, and measuring luminescence on a SpectraMax (Molecular Devices).

MV-4-11 and HL-60 cells [2] = test: Flow cytometry, cell cycle (EdU, S phase); format: cell-based, human; settings: single agent, 72 hours
Procedure: (§1) All compounds and/or solvent DMSO were added concurrently at the indicated doses. Flow cytometry was performed to measure surface level of CD11b, cell cycle distribution, and induction of apoptosis. CD11b and apoptosis were analyzed on a FC500 flow cytometer ([…]) and cell cycle profiled on an Attune NxT (Life Technologies).
EdU labeled cells were then mixed with FxCycle Far Red Stain (Life Technologies) and 100 μg RNase A cocktail (Life technologies) for 30 minutes before flow cytometry analysis. Edu positive populations representing S phase cells were quantified.

[3] = tested on: MV-4-11, Kasumi-1 and HL-60 cell lines; test: Histone acetylation by immunoblotting; format: cell-based, human; settings: 24 hours, increasing doses
Text: The EpiQuick Total Histone Extraction kit (Epigentek) was used to isolate histones. Histone lysates were size separated on Bolt 10% Bis-Tris gradient gels (Life Technologies), transferred to polyvinylidene difluoride membranes, blocked in 5% BSA, and detected using standard western blotting techniques.

MOLM-13 cells = test: Cell viability assay (CellTiter-Glo), single agent and combination; settings: read-out: IC50 cell viability MOLM-13; 72 hours
Procedure: as §5, §6

MV-4-11 and HL-60 cells [4] = test: Flow cytometry, apoptosis (Annexin V); format: cell-based, human; settings: single agent, 96 hours
Procedure: as §1
Annexin V-positive populations were quantified.

HDAC6 = target: T1, HDAC6 (Homo sapiens, UniProt Q9UBN7); test: HDAC enzyme assay, in vitro biochemical; settings: maximum concentration tested of 20 μM
T1 construct: purchased BPS Biosciences
T1 sequence (Q9UBN7 1-1215): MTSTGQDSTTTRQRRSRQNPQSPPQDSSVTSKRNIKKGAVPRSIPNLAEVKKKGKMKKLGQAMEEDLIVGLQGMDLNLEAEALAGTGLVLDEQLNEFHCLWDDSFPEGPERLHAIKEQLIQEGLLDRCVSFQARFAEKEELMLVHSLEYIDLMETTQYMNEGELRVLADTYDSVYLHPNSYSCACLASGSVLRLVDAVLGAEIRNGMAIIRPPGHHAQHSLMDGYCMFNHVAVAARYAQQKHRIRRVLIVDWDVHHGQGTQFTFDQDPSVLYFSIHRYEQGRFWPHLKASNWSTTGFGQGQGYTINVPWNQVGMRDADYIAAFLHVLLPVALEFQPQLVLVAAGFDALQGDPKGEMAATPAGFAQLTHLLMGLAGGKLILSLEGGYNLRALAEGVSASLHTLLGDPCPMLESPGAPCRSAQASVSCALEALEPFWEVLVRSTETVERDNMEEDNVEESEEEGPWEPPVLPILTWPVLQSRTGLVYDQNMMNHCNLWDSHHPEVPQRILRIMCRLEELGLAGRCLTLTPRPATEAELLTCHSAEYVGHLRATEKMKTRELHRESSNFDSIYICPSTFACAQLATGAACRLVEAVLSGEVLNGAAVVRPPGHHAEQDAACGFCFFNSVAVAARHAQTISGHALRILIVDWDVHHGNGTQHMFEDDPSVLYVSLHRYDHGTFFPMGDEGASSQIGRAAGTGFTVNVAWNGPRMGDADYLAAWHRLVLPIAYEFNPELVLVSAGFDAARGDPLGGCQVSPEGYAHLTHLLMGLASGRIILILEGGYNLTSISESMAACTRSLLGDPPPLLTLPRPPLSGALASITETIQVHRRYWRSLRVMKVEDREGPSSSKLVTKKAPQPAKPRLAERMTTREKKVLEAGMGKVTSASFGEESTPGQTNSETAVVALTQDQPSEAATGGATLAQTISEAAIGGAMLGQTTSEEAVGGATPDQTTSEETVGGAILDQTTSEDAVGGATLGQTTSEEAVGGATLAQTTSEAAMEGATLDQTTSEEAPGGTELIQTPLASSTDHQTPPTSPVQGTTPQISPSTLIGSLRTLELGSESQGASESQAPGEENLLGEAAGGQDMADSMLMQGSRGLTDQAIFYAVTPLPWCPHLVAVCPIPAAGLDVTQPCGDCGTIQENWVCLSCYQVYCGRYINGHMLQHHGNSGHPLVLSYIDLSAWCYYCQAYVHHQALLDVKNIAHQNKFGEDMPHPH
Procedure: (§2) In vitro biochemical assays were performed as described previously. Specifically, compounds were dissolved and diluted in assay buffer (50 mM HEPES, pH 7.4, 100 mM KCl, 0.001% Tween-20, 0.05% BSA, and 20 μM Tris (2-carboxyethyl) phosphine) to 6-fold the final concentration. […] The amount of substrate (acetyl-lysine tripeptide) used for each enzyme was equal to the Michaelis constant (Km), as determined by a titration curve. Substrate was diluted in assay buffer to 6-fold of the final concentration with 0.3 μM sequencing grade trypsin (Sigma-Aldrich). The substrate/trypsin mix was added to the enzyme/compound mix and the plate was shaken for 5 seconds and then placed into a SpectraMax M5 microtiter (Molecular Devices) plate reader. The enzymatic reaction was monitored over 30 minutes for release of […] after deacetylation of the lysine side chain in the peptide substrate, and the linear rate of the reaction was calculated.
(§3) biochemical assay for HDAC4, HDAC5, HDAC6, HDAC7, HDAC8, HDAC9 inhibition by ACY-1035.
(§4) (1 picture or pasted object on this page, not shown here)

HDAC9 = target: T2, HDAC9 (Homo sapiens, UniProt Q9UKV0); test: HDAC enzyme assay, in vitro biochemical; settings: maximum concentration tested of 20 μM
T2 construct: purchased BPS Biosciences
Procedure: as §2, §3, §4

HDAC5 = target: T3, HDAC5 (Homo sapiens, UniProt Q9UQL6); test: HDAC enzyme assay, in vitro biochemical; settings: maximum concentration tested of 20 μM
T3 construct: purchased BPS Biosciences
Procedure: as §2, §3, §4

MV-4-11 cells = test: Cell viability assay (CellTiter-Glo), single agent and combination; settings: read-out: IC50 cell viability MV-4-11; 72 hours
Procedure: as §5, §6

HL-60 cells = test: Cell viability assay (CellTiter-Glo); settings: read-out: IC50 cell viability HL-60; 72 hours
Procedure: as §5, §6

MOLM-13 xenograft = test: In vivo model of AML: MOLM-13 xenograft, time to endpoint (TTE) and survival; settings: Azacitidine 5.5 mg/kg, iv, bi-weekly; for Tumor volume: individual animal;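 on all read-outs here: female Crl:NU(NCr)-Foxn1^nu mice bearing subcutaneous flank MOLM-13 tumors, caliper-measured twice per week, volume as width^2 × length/2, endpoint reached at 2000 mm^3 tumor volume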

T3 sequence (Q9UQL6 whole entry): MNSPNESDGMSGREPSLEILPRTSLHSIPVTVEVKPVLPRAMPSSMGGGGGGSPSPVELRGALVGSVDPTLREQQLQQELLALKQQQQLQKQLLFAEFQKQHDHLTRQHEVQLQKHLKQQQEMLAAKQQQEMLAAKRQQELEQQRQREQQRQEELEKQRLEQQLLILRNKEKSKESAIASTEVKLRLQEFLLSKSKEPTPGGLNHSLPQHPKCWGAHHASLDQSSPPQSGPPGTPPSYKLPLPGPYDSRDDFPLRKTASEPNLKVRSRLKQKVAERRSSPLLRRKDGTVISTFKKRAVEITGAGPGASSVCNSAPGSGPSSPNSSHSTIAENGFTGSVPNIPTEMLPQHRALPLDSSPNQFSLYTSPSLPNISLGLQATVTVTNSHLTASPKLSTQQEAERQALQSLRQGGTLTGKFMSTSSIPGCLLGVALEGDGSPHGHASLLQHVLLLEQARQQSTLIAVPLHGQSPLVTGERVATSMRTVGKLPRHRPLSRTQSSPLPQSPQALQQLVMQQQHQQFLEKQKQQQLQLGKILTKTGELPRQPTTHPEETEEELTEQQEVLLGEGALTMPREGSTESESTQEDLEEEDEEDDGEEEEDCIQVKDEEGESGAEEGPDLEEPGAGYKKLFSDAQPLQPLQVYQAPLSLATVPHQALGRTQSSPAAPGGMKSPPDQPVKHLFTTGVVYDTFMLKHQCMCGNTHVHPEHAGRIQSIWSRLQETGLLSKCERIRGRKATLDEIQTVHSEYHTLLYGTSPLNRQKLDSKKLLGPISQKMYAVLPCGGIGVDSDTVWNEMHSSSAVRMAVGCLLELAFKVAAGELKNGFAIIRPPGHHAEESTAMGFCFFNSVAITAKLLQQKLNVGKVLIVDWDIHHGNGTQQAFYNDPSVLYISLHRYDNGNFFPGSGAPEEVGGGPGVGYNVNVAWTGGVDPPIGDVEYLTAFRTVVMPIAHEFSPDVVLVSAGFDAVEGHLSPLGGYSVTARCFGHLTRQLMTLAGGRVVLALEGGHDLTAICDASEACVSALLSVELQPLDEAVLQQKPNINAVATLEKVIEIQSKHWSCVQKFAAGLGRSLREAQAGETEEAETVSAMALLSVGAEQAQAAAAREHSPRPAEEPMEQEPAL
T2 sequence (Q9UKV0 whole entry): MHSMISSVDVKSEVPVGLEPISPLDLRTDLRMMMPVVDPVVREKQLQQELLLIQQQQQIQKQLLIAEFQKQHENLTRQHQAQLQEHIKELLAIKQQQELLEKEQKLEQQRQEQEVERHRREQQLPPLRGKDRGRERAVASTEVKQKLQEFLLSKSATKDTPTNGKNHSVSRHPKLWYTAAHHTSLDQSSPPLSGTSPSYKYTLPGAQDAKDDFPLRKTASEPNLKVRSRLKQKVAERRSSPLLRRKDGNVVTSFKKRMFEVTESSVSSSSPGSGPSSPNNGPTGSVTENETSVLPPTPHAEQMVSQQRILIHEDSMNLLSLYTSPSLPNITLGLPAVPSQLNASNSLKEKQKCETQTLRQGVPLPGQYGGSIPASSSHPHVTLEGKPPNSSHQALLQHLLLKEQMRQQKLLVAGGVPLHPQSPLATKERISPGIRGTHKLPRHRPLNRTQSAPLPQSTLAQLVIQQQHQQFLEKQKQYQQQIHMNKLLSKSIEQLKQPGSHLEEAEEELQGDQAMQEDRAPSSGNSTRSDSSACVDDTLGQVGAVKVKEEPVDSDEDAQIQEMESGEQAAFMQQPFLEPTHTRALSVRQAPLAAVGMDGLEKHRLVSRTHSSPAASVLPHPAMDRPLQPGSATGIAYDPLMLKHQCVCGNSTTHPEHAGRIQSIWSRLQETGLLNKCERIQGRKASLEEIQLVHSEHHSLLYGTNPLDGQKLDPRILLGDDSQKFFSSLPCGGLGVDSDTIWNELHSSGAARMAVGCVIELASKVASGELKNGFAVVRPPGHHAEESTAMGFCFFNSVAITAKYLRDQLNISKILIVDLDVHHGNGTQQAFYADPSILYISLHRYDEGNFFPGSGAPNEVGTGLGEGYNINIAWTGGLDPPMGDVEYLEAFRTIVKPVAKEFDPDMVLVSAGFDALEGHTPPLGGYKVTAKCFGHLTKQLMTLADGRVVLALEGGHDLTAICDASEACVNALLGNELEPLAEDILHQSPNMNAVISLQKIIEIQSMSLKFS

Nc1ccc(-c2cccs2)cc1NC(=O)c1ccc2c(c1)cc(C1CC1)n2CCN1CCOCC1 [ACY-1035]
pIC50 ([1]; read-out: IC50 values cell viability, range, five human AML cell lines, both compounds): 5.48 to 6.10
pIC50 ([1]; read-out: average IC50 value, viability of AML cells, average of five AML cell lines): 5.59
pIC50 (NB-4 cells): 5.55
cells in S phase (MV-4-11 and HL-60 cells [2]): dose-dependent reduction of cells in S phase
acetylation on histone H2B lysine 5 (H2BK5ac) and histone H3 lysine 56 (H3K56ac) [3]: dose-dependent accumulation
pIC50 (MOLM-13 cells): 5.54
apoptosis, staining for annexin V (MV-4-11 and HL-60 cells [4]): increased staining for annexin V
inhibition of HDAC6 (HDAC6): did not inhibit
inhibition of HDAC9 (HDAC9): did not inhibit
inhibition of HDAC5 (HDAC5): did not inhibit
pIC50 (MV-4-11 cells): 5.85
pIC50 (HL-60 cells): 5.48

Nc1ncn([C@@H]2O[C@H](CO)[C@@H](O)[C@H]2O)c(=O)n1 [azacitidine]
TTE (MOLM-13 xenograft; TTE for individual animal): 14.4 and 17 and 17.1 and 17.2 and 17.4 and 17.6 and 17.7
Tumor volume (MOLM-13 xenograft; day of study 1): 108 mm3 and 126 mm3 and 144 mm3 and 172 mm3
Tumor volume (MOLM-13 xenograft; day of study 5): 172 mm3 and 126 mm3 and 245 mm3 and 196 mm3 and 365 mm3 and 256 mm3
Tumor volume (MOLM-13 xenograft; day of study 8): 500 mm3 and 365 mm3 and 405 mm3 and 700 mm3 and 288 mm3 and 650 mm3 and 726 mm3 and 550 mm3
Tumor volume (MOLM-13 xenograft; day of study 12): 1470 mm3 and 936 mm3 and 1183 mm3 and 1862 mm3 and 787 mm3 and 1080 mm3 and 1008 mm3 and 1152 mm3 and 1666 mm3
Tumor volume (MOLM-13 xenograft; day of study 15): 1913 mm3 and 1568 mm3 and 2025 mm3 and 2816 mm3 and 1268 mm3 and 1666 mm3 and 1764 mm3 and 3240 mm3
Tumor volume (MOLM-13 xenograft; day of study 19): 2025 mm3 and 2432 mm3 and 2176 mm3 and 2138 mm3 and 2250 mm3
